Data taken from paper PMC7481357, “N-terminal Myristoylation Enhanced the Antimicrobial Activity of Antimicrobial Peptide PMAP-36PW” (Frontiers in Cellular and Infection Microbiology, 2020).
“Also recorded” adds a separate entry of the source. Residues, ends and D or L forms follow the SMILES beside them. *: point of attachment. Myristoyl = CCCCCCCCCCCCCC(=O)*

Tests used:
P. aeruginosa GIM 1.551 [1] = experiment: Wound infection model; assay type: in vivo, BALB/c mice; details: 20 μL, 1 μg/μL, once a day for 7 days
Method: Sixty mice with ten mice in each group were used in the experiment. Infection and treatment were performed as previously described (Hong et al., [2017]). The mouse dorsal region with a diameter of 3.0 cm was treated with hair pusher, and a full-thickness 2.0 cm diameter wound was created by excising the skin and infected by direct seeding with P. aeruginosa GIM 1.551 (1 × 10^8 CFU/mL, 50 μL). The wound was then covered with sterile gauze to prevent cross contamination. Treatment was initiated at 24 h after bacterial inoculation. The mice with no infection and treatment was used as a blank control, those provided with PBS (20 μL) as the negative control group, those administered with ampicillin sodium (20 μL, 1 μg/μL) as the positive control group, and the remaining were those treated with the three peptides (20 μL, 1 μg/μL) once a day for 7 days as the treatment groups. The mice were sacrificed after the 7 day treatment. Changes in the wound were observed, and the infected sections of skin were aseptically contained, homogenized, and serially diluted. Bacterial CFU counts were obtained.
Figure 11 Treatment value of wound by Myr-36PW in vivo. A 2 cm wound was cut with a knife and directly injected with P. aeruginosa GIM 1.551. (A) Wound changes of mice after 7 days treatment. (B) Bacterial CFU in the wound area treated for 7 days under different experimental conditions. AS is ampicillin sodium. Data represent the mean Log (CFU) ± SD of five individual experiments. *P < 0.05 and **P < 0.01, compared with PBS. ^#P < 0.05, compared with PMAP-36PW.

P. aeruginosa GIM 1.551 [2] = experiment: Subcutaneous abscess model; assay type: in vivo, BALB/c mice; details: injected 20 μL, 1 μg/μL, once a day for 3 days
Method: A subcutaneous abscess model in vivo was established as previously reported (Zhao et al., [2019]). The mouse dorsal region with 3.0 cm diameter was treated with hair pusher. A total of 120 mice were randomly divided into two experimental models, one was challenged with S. aureus ATCC 25923 (2.5 × 10^8 CFU/mL, 60 μL), and the other was challenged with P. aeruginosa GIM 1.551 (3.0 × 10^8 CFU/mL, 60 μL). In the S. aureus ATCC 25923 model, 60 mice were divided into six groups of 10 members. The mice with no infection and treatment was used as a blank control, those directly injected with PBS (20 μL) as the negative control group, those injected with benzylpenicillin potassium (20 μL, 1 μg/μL) as the positive control group, and the remaining three groups as the treatment groups injected with Myr-36PW (20 μL, 1 μg/μL), PMAP-36PW (20 μL, 1 μg/μL), and PMAP-36 (20 μL, 1 μg/μL). The procedure in P. aeruginosa GIM 1.551 model is the same as that in S. aureus ATCC 25923 model, except for the use of ampicillin sodium as a positive control. Treatment once a day for 3 days was initiated when the mice developed prominent pustules on their backs. A day after the treatment, the size of the abscess was observed, and its tissues were excised, homogenized, and serially diluted. Bacteria CFU counts were calculated.
Figure 10 Treatment efficacy of subcutaneous abscess by Myr-36PW in vivo. Mice were injected with S. aureus ATCC 25923 or P. aeruginosa GIM 1.551 to develop a subcutaneous abscess before treatment. (A) Changes in the abscess area of mice after 3 days treatment. (B,C) Quantitative analysis of bacterial CFU in abscess area that received 3 days treatment under various experimental conditions. The number of CFU in each treatment group was normalized by using the CFU of the experimental group divided by the CFU of the PBS group (100%). BP is benzylpenicillin potassium, AS is ampicillin sodium. Data represent the mean ± SD of five individual experiments. *P < 0.05 and **P < 0.01, compared with PBS. ^#P < 0.05 and ^##P < 0.01, compared with PMAP-36PW.

P. aeruginosa GIM 1.551 [3] = experiment: Inhibition zone assay (disk diffusion); assay type: cell-based, Pseudomonas aeruginosa; parameters: key: +, means the peptide has antibacterial activity; details: disk 10 μg peptide, 18 h at 37°C, * P < 0.05, ** P < 0.01 vs PMAP-36PW
Method: (§1) The inhibition zone assay was performed through the disk diffusion to evaluate the antimicrobial activity of Myr-36PW in vitro (Dunne et al., [2017]). The four above-mentioned bacterial strains were used as experimental strains, with L. monocytogenes CICC 21634 cultured in BHI medium, and P. aeruginosa GIM 1.551 cultured in TSB medium. The bacterial cells were cultured for 12 h at 37°C in the appropriate medium, and the bacterial cell suspension was spread on LB agar. The disks containing 10 μg of peptides (1 μg/μL) were attached to the solid medium and incubated at 37°C for 18 h. Finally the diameter of the inhibition zone was measured.

[4] = Self-assembly of the peptide; assay type: physicochemical; details: stated in discussion, method not given
S. typhimurium SL 1344 = experiment: Inhibition zone assay (disk diffusion); assay type: cell-based, Salmonella typhimurium; parameters: key: +, means the peptide has antibacterial activity; details: disk 10 μg peptide, 18 h at 37°C, * P < 0.05, ** P < 0.01 vs PMAP-36PW
Method: as §1

[5] = tested on: S. aureus ATCC 25923 and P. aeruginosa GIM 1.551; experiment: pH stability testing (pH 2-13, then inhibition zone assay); assay type: cell-based, Staphylococcus aureus; Pseudomonas aeruginosa; details: for pH range of stable antimicrobial activity: peptides treated at pH 2–13, inhibition zone, 10 μg, n = 5
Method: For stability test, the Myr-36PW and peptides were treated with pH 2–13, and PBS buffer with different pH values was used as a control (Wang et al., [2019]). Inhibition zone assay was performed against S. aureus ATCC 25923 and P. aeruginosa GIM 1.551. The inhibition zone diameters of peptides (10 μg, 1 μg/μL) were measured after incubation for 18 h at 37°C, and the inhibition curve was drawn.
Figure 4 PH stability determination of Myr-36PW. PH stability test was performed using Myr-36PW and its analogs treated with different pH levels (2–13) through disk diffusion method. (A) (S. aureus ATCC 25923) and (B) (P. aeruginosa GIM 1.551) show the pH stability curve of PMAP-36, PMAP-36PW, and Myr-36PW. The diameter of the standard disk is 6 mm. Data represent the mean ± SD (n = 5).

Compound: CCCCCCCCCCCCCC(=O)NCC(=O)NCC(=O)N[C@@H](CCCNC(=N)N)C(=O)N[C@@H](Cc1ccccc1)C(=O)N[C@@H](CCCNC(=N)N)C(=O)N[C@@H](CCCNC(=N)N)C(=O)N[C@@H](CC(C)C)C(=O)N[C@@H](CCCNC(=N)N)C(=O)N[C@@H](CCCCN)C(=O)N[C@@H](CCCCN)C(=O)N[C@H](C(=O)N[C@@H](CCCNC(=N)N)C(=O)N[C@@H](CCCCN)C(=O)N[C@@H](CCCNC(=N)N)C(=O)N[C@@H](CC(C)C)C(=O)N[C@@H](CCCCN)C(=O)N[C@@H](CCCCN)C(=O)N[C@H](C(=O)NCC(=O)N[C@@H](CCCCN)C(=O)N[C@H](C(=O)N[C@@H](CC(C)C)C(=O)N[C@@H](CCCCN)C(=O)N[C@@H](Cc1c[nH]c2ccccc12)C(=O)N[C@H](C(=O)N[C@@H](Cc1c[nH]c2ccccc12)C(=O)N[C@@H](Cc1c[nH]c2ccccc12)C(=O)N[C@H](C(=O)N[C@H](C(=O)NCC(=O)N[C@@H](CO)C(=O)N[C@H](C(=O)N1CCC[C@H]1C(=O)N[C@@H](CC(C)C)C(=O)NCC(=O)N[C@@H](CS)C(=O)NCC(=O)O)[C@@H](C)CC)C(C)C)[C@@H](C)CC)[C@@H](C)CC)C(C)C)[C@@H](C)CC)[C@@H](C)O [Myr-36PW] (Myristoyl-GGRFRRLRKKTRKRLKKIGKVLKWIWWIVGSIPLGCG-OH; C-terminus assumed)
- Wound size (P. aeruginosa GIM 1.551 [1]): significantly reduced
- Bacterial CFU in the wound area (P. aeruginosa GIM 1.551 [1]; vs PBS group: PMAP-36PW P < 0.05, Myr-36PW and ampicillin sodium P < 0.01, n = 5): significantly reduced
- Abscess area (P. aeruginosa GIM 1.551 [2]): significantly reduced the abscess area and effectively suppressed its growth
- Bacterial CFU in abscess area (P. aeruginosa GIM 1.551 [2]; vs PMAP-36PW: Myr-36PW P < 0.05, ampicillin sodium P < 0.01, n = 5): significant difference compared with that of PBS group (P < 0.01); also recorded: lower than that of PMAP-36PW group
- In vitro antibacterial activity (disk diffusion) (P. aeruginosa GIM 1.551 [3]): +**
- Self-assembly [4]: not self-assembly
- In vitro antibacterial activity (disk diffusion) (S. typhimurium SL 1344): +*
- pH range of stable antimicrobial activity ([5]; against P. aeruginosa GIM 1.551): 5–11 pH
- pH range of stable antimicrobial activity ([5]; against S. aureus ATCC 25923): 5–9 pH
- Antimicrobial activity at pH 2 ([5]; inhibition zone, 10 μg peptide): higher than that of PMAP-36PW
- Antimicrobial activity at pH 13 ([5]; inhibition zone, 10 μg peptide): disappeared
